Assay results as given in patent publication US20180153830A1, “SELECTIVE INHIBITORS OF UNDIFFERENTIATED CELLS” (Yissum Research Development Company of the Hebrew …, priority 2012, published 2018).
Structures can show the parent of a compound that is named as a salt. Peptide text beside a SMILES is read from it. * marks the point of attachment. Cbz = O=C(OCc1ccccc1)*; CH2F = FC*

Assays:
[1] = system: hPSCs; experiment: hPSC viability after SCD1 inhibitors with or without oleic acid; format: cell-based, human; conditions: 75 nM inhibitor, 100 μM oleic acid, 48 hours
Method: (§1) In order to determine whether hPSC viability indeed depends on functional SCD1 activity, hPSCs were exposed to 75 nM of the specific SCD1 inhibitors A939572 and CAY-10566 for 48 hours. Some samples were supplemented with 100 μM oleic acid in order to evaluate the effect of exogenous supplementation of oleic acid (a product of SCD1 activity) on cell death.

[2] = as above; format: cell-based, human; conditions: human, human pluripotent stem cells (hPSCs), 75 nM, read-out: decrease in viability of hPSCs
Method: as §1

[3] = system: human embryonic stem cells; experiment: Pancaspase inhibitor effect on PluriSIn #1-induced cell death; format: cell-based; conditions: 25 μM or 100 μM, 1 hour before 20 μM PluriSIn #1; 24 hours
Method: The effect of the pancaspase inhibitor Z-VAD-FMK on PluriSIn #1-induced cell death was also examined. Cells were treated with 25 μM or 100 μM of Z-VAD-FMK, and 1 hour later PluriSIn #1 (20 μM) was added to the medium. After 24 hours, the cultures were subjected to cell viability measurements, as described hereinabove.

[4] = system: human embryonic stem cells; experiment: Oleic acid rescue assay; format: cell-based; conditions: 20 μM PluriSIn (2 μM amsacrine); up to 100 μM BSA-OA
Method: Human embryonic stem cells were cultured without feeder cells in CELLSTAR® 24-well tissue culture plates (Greiner Bio-One) pre-coated with Matrigel™, using mTeSR1 defined medium. […] After 24 hours, the cells were subjected to microscopy imaging and to cell viability measurements.
In order to further investigate the effect of SCD activity on hPSC viability, the ability of exogenous supplementation of oleic acid (the direct product of SCD1) to rescue cells from PluriSIn-induced apoptosis was further studied, using procedures described in the Materials and Methods section. Cells were exposed to PluriSn #1 in the presence of increasing concentrations of BSA-conjugated oleic acid (BSA-OA).
For comparison, cells were exposed to 20 μM of PluriSIn #1, #2, #3 and #6 in the presence of 100 μM BSA-OA.

[5] = system: human pluripotent stem cells (hPSCs); experiment: Pilot cytotoxicity screen with 50 commercially available compounds; format: cell-based; conditions: within 24 hours
Method: (§2) The CellTiter-Glo® luminescent cell viability assay (Promega, Madison, Wis.) was implemented as a high-throughput screening (HTS) assay for a chemical library screen in a 384-well format. After the DMSO tolerance of the assay was assessed, and the optimal cell numbers were determined for each cell type, a pilot screen was performed with the following 50 commercially available compounds:
(§3) 3-acetamidophenol, 4-acetamidophenol, 6-methylcoumarin, acetaminophen, acetazolamide, actidione, amantadine hydrochloride, aminosalicylic acid, amodiaquine, amsacrine hydrochloride, aztreonam, caffeine, carboplatin, cefamandole sodium, cholic acid, ciprofloxacin, clozapine, coumarin, crotaline, diflunisal, dopamine, doxycycline, erythromycin, estradiol, famotidine, fenofibrate, fludrocortisone acetate, gentamicin, imipramine, isoniazid, isoproterenol, kanamycin, ketoconazole, L-thyroxine, mefenamic acid, nadolol, naibuphine hydrochloride hydrate, nizatidine, norepinephrine, phenobarbital, quinine hydrochloride, salicylate, sodium 2-mercapto-ethanesulfonate, sulfasalazine, sulindac, tetracycline, tetraethylthiarum disulfide, timolol maleate, valproic acid sodium, and WY-14643.
(§4) A pilot screen was then performed with 50 commercially-available compounds (as described in the Materials and Methods section hereinabove), which were randomly selected from a bank of known cytotoxic compounds. […]

[6] = system: embryonic stem cells and differentiated cells (human fibroblasts); experiment: Cytotoxicity of ER stress inducer and protein synthesis inhibitor with or without oleic acid
[7] = Pilot cytotoxicity screen with 50 commercially available compounds; format: cell-based, human; conditions: human; after 24 hours, at a concentration of 1-3 μM; read-out: decrease in cell viability
Method: as §2, §3, §4

## Cc1nnc(-c2ccc(N3CCC(Oc4cc(F)ccc4Cl)CC3)nn2)o1 [CAY-10566, 3-[4-(2-chloro-5-fluorophenoxy)-1-piperidinyl]-6-(5-methyl-1,3,4-oxadiazol-2-yl)-pyridazine]
[1]
  rescue from SCD1 inhibitor-induced cell death by oleic acid: completely rescued
[2]
  cytotoxicity at 48 h, 75 nM: > 80%

## COC(=O)C[C@H](NC(=O)[C@H](C)NC(=O)[C@@H](NC(=O)OCc1ccccc1)C(C)C)C(=O)CF [Z-VAD-FMK] (Cbz-Val-Ala-Asp(OMe)-CH2F)
[3]
  suppression of PluriSIn #1-induced cell death: significant suppressed PluriSIn #1-induced cell death

## COc1cc(NS(C)(=O)=O)ccc1Nc1c2ccccc2nc2ccccc12 [amsacrine hydrochloride, reference compound]
[4]
  protection by BSA-conjugated oleic acid (BSA-OA) against cell death induced by the compound: did not protect
[5]
  cell killing: killed almost all cells

## C[C@@H]1C[C@@H]([C@H](O)CC2CC(=O)NC(=O)C2)C(=O)[C@@H](C)C1 [cycloheximide]
[6]; 100 μM oleic acid
  protection by oleic acid against the compound's cytotoxicity: does not protect
[6]; 1 mM dithiothreitol or 10 μM cycloheximide, 48 hours
  cytotoxicity towards embryonic stem cells and differentiated cells: cytotoxic towards both embryonic stem cells and differentiated cells
[7]
  cytotoxicity at 24 h: ~50%
